Results published in patent US10987357B2, “Aerosolized fluoroquinolones and uses thereof” (Horizon Orphan, LLC, priority 2005, dated 2021).

System: not listed separately
Assay: physchem
Settings: not given
Protocol: A 2 to 20 mg sample of each antibiotic was weighed into sterile plastic tubes and brought up with a volume of sterile water to make a 10 mg/mL solution or suspension of the antibiotic. Samples were incubated for approximately 10 minutes at room temperature with occasional mixing, prior to further handling.
The insoluble solutions were titrated with 1N HCl to the point of visible solubility, and the pH of the solubilized solution determined.
After the pH adjustment, and following a further 10 minute incubation period with occasional mixing, the final appearance of the solutions was determined, just prior to the aerosol tolerability and taste test.
For COc1c(N2C[C@@H]3CCCN[C@@H]3C2)c(F)cc2c(=O)c(C(=O)O)cn(C3CC3)c12 [Moxifloxacin], the solubility/pH characteristics was “best solubility/pH characteristics”.

Same assay, conditions: 10 mg/mL in sterile water
With CCn1cc(C(=O)O)c(=O)c2cc(F)c(N3CCNC(C)C3)c(F)c21 (centres unmarked) [Lomefloxacin] the “Initial Solution pH” value was 4.2.
With CN1CCN(c2c(F)cc3c(=O)c(C(=O)O)cn4c3c2OCN4C)CC1 [Marbofloxacin] the “Initial Solution pH” value was 6.5.
For N[C@@H]1[C@H]2CN(c3nc4c(cc3F)c(=O)c(C(=O)O)cn4-c3ccc(F)cc3F)C[C@@H]12 [Trovafloxacin], the “Initial Solution pH” value was 4.2.

Same assay, conditions: 10 mg/mL in sterile water, room temperature
With CCn1cc(C(=O)O)c(=O)c2cc(F)c(N3CCNC(C)C3)c(F)c21 (centres unmarked) [Lomefloxacin] the “Initial Solution Appearance” value was “cloudy, visible sediment”.
In the case of CN1CCN(c2c(F)cc3c(=O)c(C(=O)O)cn4c3c2OCN4C)CC1 [Marbofloxacin], the “Initial Solution Appearance” value is reported as “white, very turbid, visible”.
For C[C@@H]1CN(c2c(F)c(F)c3c(=O)c(C(=O)O)cn(C4CC4)c3c2F)C[C@H](C)N1 [Orbifloxacin], the “Initial Solution Appearance” value was “white, cloudy, visible”.
In the case of N[C@@H]1[C@H]2CN(c3nc4c(cc3F)c(=O)c(C(=O)O)cn4-c3ccc(F)cc3F)C[C@@H]12 [Trovafloxacin], the “Initial Solution Appearance” value is reported as “colorless, slightly cloudy, no”.

Same assay, conditions: 10 mg/mL, titrated with 1N HCl
For CCn1cc(C(=O)O)c(=O)c2cc(F)c(N3CCNC(C)C3)c(F)c21 (centres unmarked) [Lomefloxacin], the “After pH Adjustment Appearance” value was “transparent, no sediment,”.
With CN1CCN(c2c(F)cc3c(=O)c(C(=O)O)cn4c3c2OCN4C)CC1 [Marbofloxacin] the “After pH Adjustment Appearance” value was “White, turbid, visible” and the “After pH Adjustment pH” value was 1.5.
For C[C@@H]1CN(c2c(F)c(F)c3c(=O)c(C(=O)O)cn(C4CC4)c3c2F)C[C@H](C)N1 [Orbifloxacin], the “After pH Adjustment Appearance” value was “colorless, transparent, no” and the “After pH Adjustment pH” value was 1.7.

Same assay, conditions: aqueous buffer, thermodynamic from solid
With CCn1cc(C(=O)O)c(=O)c2cc(F)c(N3CCNC(C)C3)c(F)c21 (centres unmarked) [Lomefloxacin] the solubility at 10 min was > 10000 µg/mL.
In the case of C[C@@H]1CN(c2c(F)c(F)c3c(=O)c(C(=O)O)cn(C4CC4)c3c2F)C[C@H](C)N1 [Orbifloxacin], the solubility at 10 min is reported as > 10000 µg/mL.
In the case of COc1c(N2C[C@@H]3CCCN[C@@H]3C2)c(F)cc2c(=O)c(C(=O)O)cn(C3CC3)c12 [Moxifloxacin], the solubility at 10 min is reported as > 10000 µg/mL.
For N[C@@H]1[C@H]2CN(c3nc4c(cc3F)c(=O)c(C(=O)O)cn4-c3ccc(F)cc3F)C[C@@H]12 [Trovafloxacin], the solubility at 10 min was > 10000 µg/mL.

Same assay, conditions: final solution, 10 mg/mL
In the case of CCn1cc(C(=O)O)c(=O)c2cc(F)c(N3CCNC(C)C3)c(F)c21 (centres unmarked) [Lomefloxacin], the “pH of final solution” value is reported as 4.2.
With CN1CCN(c2c(F)cc3c(=O)c(C(=O)O)cn4c3c2OCN4C)CC1 [Marbofloxacin] the “pH of final solution” value was 1.5.
With C[C@@H]1CN(c2c(F)c(F)c3c(=O)c(C(=O)O)cn(C4CC4)c3c2F)C[C@H](C)N1 [Orbifloxacin] the “pH of final solution” value was 1.7.
In the case of N[C@@H]1[C@H]2CN(c3nc4c(cc3F)c(=O)c(C(=O)O)cn4-c3ccc(F)cc3F)C[C@@H]12 [Trovafloxacin], the “pH of final solution” value is reported as 4.2.

Same assay, conditions: pH 1.5
With CN1CCN(c2c(F)cc3c(=O)c(C(=O)O)cn4c3c2OCN4C)CC1 [Marbofloxacin] the “solubility on titration with 1N HCl” value was “solubility was not reached by pH 1.5”.

System: Pseudomonas aeruginosa (Pa)
Assay: not given
Settings: Table 6; cited from earlier work
In the case of CCn1cc(C(=O)O)c(=O)c2cc(F)c(N3CCNC(C)C3)c(F)c21 (centres unmarked) [Lomefloxacin], the “Pa MIC90” value is given as 32 µg/mL.
In the case of CN1CCN(c2c(F)cc3c(=O)c(C(=O)O)cn4c3c2OCN4C)CC1 [Marbofloxacin], the “Pa MIC90” value is given as 8 µg/mL.
In the case of C[C@@H]1CN(c2c(F)c(F)c3c(=O)c(C(=O)O)cn(C4CC4)c3c2F)C[C@H](C)N1 [Orbifloxacin], the “Pa MIC90” value is given as >32 µg/mL.
For CCn1cc(C(=O)O)c(=O)c2cc(F)c(N3CCN(C)CC3)cc21 [Pefloxacin], the “Pa MIC90” value is listed as >32 µg/mL.
In the case of N[C@@H]1[C@H]2CN(c3nc4c(cc3F)c(=O)c(C(=O)O)cn4-c3ccc(F)cc3F)C[C@@H]12 [Trovafloxacin], the “Pa MIC90” value is given as >32 µg/mL.

System: Streptococcus pneumonia (Sp)
Assay: not given
Settings: Table 6; cited from earlier work
For CCn1cc(C(=O)O)c(=O)c2cc(F)c(N3CCNC(C)C3)c(F)c21 (centres unmarked) [Lomefloxacin], the “SP MIC90” value is given as 16 µg/mL.
In the case of CN1CCN(c2c(F)cc3c(=O)c(C(=O)O)cn4c3c2OCN4C)CC1 [Marbofloxacin], the “SP MIC90” value is listed as 2 µg/mL.
For C[C@@H]1CN(c2c(F)c(F)c3c(=O)c(C(=O)O)cn(C4CC4)c3c2F)C[C@H](C)N1 [Orbifloxacin], the “SP MIC90” value is given as 2 µg/mL.
In the case of CCn1cc(C(=O)O)c(=O)c2cc(F)c(N3CCN(C)CC3)cc21 [Pefloxacin], the “SP MIC90” value is listed as 32 µg/mL.
For N[C@@H]1[C@H]2CN(c3nc4c(cc3F)c(=O)c(C(=O)O)cn4-c3ccc(F)cc3F)C[C@@H]12 [Trovafloxacin], the “SP MIC90” value is given as 0.25 µg/mL.

System: methicillin resistant Staphylococcus aureus (MRSA)
Assay: not given
Settings: Table 6; cited from earlier work
For CCn1cc(C(=O)O)c(=O)c2cc(F)c(N3CCNC(C)C3)c(F)c21 (centres unmarked) [Lomefloxacin], the “MRSA MIC90” value is listed as >32 µg/mL.
For CCn1cc(C(=O)O)c(=O)c2cc(F)c(N3CCN(C)CC3)cc21 [Pefloxacin], the “MRSA MIC90” value is given as >32 µg/mL.
For N[C@@H]1[C@H]2CN(c3nc4c(cc3F)c(=O)c(C(=O)O)cn4-c3ccc(F)cc3F)C[C@@H]12 [Trovafloxacin], the “MRSA MIC90” value is listed as 8 µg/mL.

System: MSSA
Assay: not given
Settings: Table 6; cited from earlier work
In the case of CCn1cc(C(=O)O)c(=O)c2cc(F)c(N3CCNC(C)C3)c(F)c21 (centres unmarked) [Lomefloxacin], the “MSSA MIC90” value is listed as 2 µg/mL.
In the case of CN1CCN(c2c(F)cc3c(=O)c(C(=O)O)cn4c3c2OCN4C)CC1 [Marbofloxacin], the “MSSA MIC90” value is listed as 2 µg/mL.
For C[C@@H]1CN(c2c(F)c(F)c3c(=O)c(C(=O)O)cn(C4CC4)c3c2F)C[C@H](C)N1 [Orbifloxacin], the “MSSA MIC90” value is listed as 2 µg/mL.
In the case of CCn1cc(C(=O)O)c(=O)c2cc(F)c(N3CCN(C)CC3)cc21 [Pefloxacin], the “MSSA MIC90” value is listed as 2 µg/mL.
In the case of N[C@@H]1[C@H]2CN(c3nc4c(cc3F)c(=O)c(C(=O)O)cn4-c3ccc(F)cc3F)C[C@@H]12 [Trovafloxacin], the “MSSA MIC90” value is given as 0.06 µg/mL.

System: not given
Assay: not given
Settings: in vivo
Protocol: In the second test, the tolerability and taste of a small aerosol sample from a 0.5 ml aliquot of the test formulation was determined in a single healthy human volunteer, following nebulization in a PARI eFlow nebulizer (Table 12).
The tolerability and taste of the drug during a very brief administration period and for a period of 10 minutes post administration were monitored. Tolerability parameters were of the following types: (i) cough, cough sensation, or sneezing (ii) irritation, burning or tightness of throat, (ii) irritation or runniness in nasal passages or eyes, (iii) irritation, burning or tightness of the lungs or shortness of breadth, and (iv) dizziness, headache, nausea or other systemic effects.
In the case of CCn1cc(C(=O)O)c(=O)c2cc(F)c(N3CCNC(C)C3)c(F)c21 (centres unmarked) [Lomefloxacin], the “Aerosol Tolerability and Taste” value is reported as “chemical taste, somewhat bitter,”.
With C[C@@H]1CN(c2c(F)c(F)c3c(=O)c(C(=O)O)cn(C4CC4)c3c2F)C[C@H](C)N1 [Orbifloxacin] the “Aerosol Tolerability and Taste” value was “very acidic, strong bitter unpleasant” and the “cough on aerosol exposure” value was “associated with cough”.
With COc1c(N2C[C@@H]3CCCN[C@@H]3C2)c(F)cc2c(=O)c(C(=O)O)cn(C3CC3)c12 [Moxifloxacin] the “Aerosol Tolerability and Taste” value was “moderate bitter unpleasant taste, some” and the “cough on aerosol exposure” value was “associated with cough”.

System: elastase
Assay: not given
Settings: cited from earlier work
For O=C(O)CCCC[C@@H](S)CCS (racemic) [DHLA, dihydrolipoic acid], the “effect on elastase activity after treatment of CF sputum” value is given as “did not increase elastase activity”.
For DNase, the “increase of sol elastase activity after treatment of CF sputum” value is listed as 190%.
